“Also recorded” adds a separate entry of the source.
Columns and labels:
[1] = test system: gastric mucosa (ulcer number, ulcer index); assay: Ulcerogenic liability; assay type: in vivo, rat; conditions: 50 mg/kg oral, three successive days, rats; for Ulcer index: sum of % incidence, average severity and average number of ulcers
Method: Female wister rats (150–200 g) were used in this study. The animals were kept at controlled conditions (temperature 23 ± 2 °C, humidity 60 ± 10%) and a 12/12-h light/dark cycle with access to food and water. All procedures relating to animal care and treatments were performed according to protocols approved by the Research Ethical Committee of Faculty of Pharmacy Beni-Suef University (2014-Beni-Suef, Egypt).
[…]. Forty-eight rats were used in this study, divided into 12 groups and fasted for 18 h before drug administration. The control group received the vehicle (2.5% Tween 80). Other groups received test compounds, celecoxib or indomethacin at a dose of 50 mg/kg, then animals were fed after 2 h. Rats were given the specified dose orally for three successive days. Rats were sacrificed after 2 h of the last dose, then the stomach of each rat was removed and opened along the greater curvature for determination of the ulcer number and ulcer index according to the reported method.

rat's gastric tissue = assay: Histopathological investigation of stomach; assay type: in vivo; conditions: haematoxylin and eosin, after ulcerogenic liability dosing
Method: Whole rats stomach were collected, selected stomach samples from each rat were fixed in 10% neutral buffered formalin for 48 h and routinely processed for paraffin embedding. 5 μm Thickness sections were obtained then stained with haematoxylin and eosin for histopathological evaluation.

[2] = test system: carrageenan-induced paw oedema; assay: Carrageenan-induced rat paw oedema; assay type: in vivo; conditions: 50 mg/kg oral; for %Inhibition of paw oedema, 1h / Paw thickness change mean ± SEM, 1h: 1 h after carrageenan; for Paw thickness change mean ± SEM, 1h / Paw thickness change mean ± SEM, 3h / Paw thickness change mean ± SEM, 5h: n = 4; for %Inhibition of paw oedema, 3h / Paw thickness change mean ± SEM, 3h: 3 h after carrageenan; for %Inhibition of paw oedema, 5h / Paw thickness change mean ± SEM, 5h: 5 h after carrageenan
Method: Female wister rats (150-200 g) were used in this study. The animals were kept at controlled conditions (temperature 23 ± 2 °C, humidity 60 ± 10%) and a 12/12-h light/dark cycle with access to food and water. All procedures relating to animal care and treatments were performed according to protocols approved by the Research Ethical Committee of Faculty of Pharmacy Beni-Suef University (2014-Beni-Suef, Egypt). The anti-inflammatory activity of the synthesised compounds was determined in vivo by […]-induced paw oedema method in rats[49]. Rats were divided into 21 groups of four animals each, and then, they were fasted overnight with free access to water before the experiment. Before any drug administration, thickness of the left hind paw of each rat was measured in millimetres. Group 1 served as a control and administered the vehicle (2.5% Tween 80).

ovine COX-2 = target: T1, ovine COX-2 (Ovis aries, UniProt P79208); assay: In vitro COX-2 inhibition assay (EIA kit, Cayman); conditions: for IC50: IC50 COX-2, ovine COX-2, mean of two determinations; for SI, COX-2 selectivity index (COX-1 IC50/COX-2 IC50): ovine enzymes
T1 sequence (P79208 17-603): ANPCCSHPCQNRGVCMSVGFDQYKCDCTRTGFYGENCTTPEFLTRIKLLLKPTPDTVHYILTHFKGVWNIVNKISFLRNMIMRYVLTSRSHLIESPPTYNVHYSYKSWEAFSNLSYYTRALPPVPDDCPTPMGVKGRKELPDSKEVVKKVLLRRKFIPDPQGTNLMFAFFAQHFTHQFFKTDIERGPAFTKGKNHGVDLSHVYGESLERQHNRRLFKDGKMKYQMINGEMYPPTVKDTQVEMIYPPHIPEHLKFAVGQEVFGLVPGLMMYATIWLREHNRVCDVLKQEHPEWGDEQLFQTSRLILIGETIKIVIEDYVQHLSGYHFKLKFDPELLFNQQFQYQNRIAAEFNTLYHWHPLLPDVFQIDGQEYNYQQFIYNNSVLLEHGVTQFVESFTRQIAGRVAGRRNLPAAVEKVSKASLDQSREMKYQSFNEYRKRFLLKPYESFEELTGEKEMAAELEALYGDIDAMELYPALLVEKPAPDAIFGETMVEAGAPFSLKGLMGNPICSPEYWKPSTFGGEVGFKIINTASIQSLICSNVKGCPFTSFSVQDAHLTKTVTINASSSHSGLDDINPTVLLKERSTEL
Method: (§1) The peroxidase activity of cyclooxygenase enzyme isoforms was measured using the COX activity assay kit. The ability of the test compounds to inhibit both ovine COX-1 and COX-2 enzymes was explored in vitro using a colorimetric enzyme immunoassay (EIA) kit. The appearance of oxidised N,N,N′,N′-tetramethyl-p-phenylenediamine (TMPD) was monitored at 590 nm. The kit includes isozyme-specific inhibitors for distinguishing COX-2 activity from that of COX-1.

ovine COX-1 = target: T2, ovine COX-1 (Ovis aries, UniProt P05979); assay: In vitro COX-1 inhibition assay (EIA kit, Cayman)
T2 sequence (P05979 25-600): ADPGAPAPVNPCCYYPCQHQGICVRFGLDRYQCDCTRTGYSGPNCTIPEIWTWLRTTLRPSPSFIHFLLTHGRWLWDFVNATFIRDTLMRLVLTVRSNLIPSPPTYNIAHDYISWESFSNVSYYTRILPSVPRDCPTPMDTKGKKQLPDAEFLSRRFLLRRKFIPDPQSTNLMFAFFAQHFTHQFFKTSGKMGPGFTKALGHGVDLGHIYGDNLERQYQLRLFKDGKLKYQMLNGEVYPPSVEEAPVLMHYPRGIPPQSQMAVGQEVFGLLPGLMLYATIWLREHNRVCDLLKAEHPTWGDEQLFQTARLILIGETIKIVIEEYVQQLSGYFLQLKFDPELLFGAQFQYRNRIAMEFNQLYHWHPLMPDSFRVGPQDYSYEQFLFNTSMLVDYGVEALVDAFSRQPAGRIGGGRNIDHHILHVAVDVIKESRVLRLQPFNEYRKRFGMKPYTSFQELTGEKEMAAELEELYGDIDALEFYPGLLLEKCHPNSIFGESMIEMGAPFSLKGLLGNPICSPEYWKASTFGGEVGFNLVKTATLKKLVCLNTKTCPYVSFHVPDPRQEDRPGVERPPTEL
Method: as §1

[3] = test system: latency time of pain response; assay: Hot plate method (central analgesic activity); assay type: in vivo; conditions: 10 mg/kg oral, mice, hot plate 55 °C, after 60 min
Method: This method was used to evaluate the central analgesic activity by determination of the delay in the latency time of pain response. […] After 60 min, the animals were placed on a hot plate maintained at 55 ± 0.5 °C. The reaction time was recorded as the time taken by the animals to […] or lick the fore or hind paw or jump off the plate.

melting point [°C]	IC50 (ovine COX-2) [µM]	SI, COX-2 selectivity index (COX-1 IC50/COX-2 IC50) (ovine COX-2)	IC50 (ovine COX-1) [µM]	SMILES	Average number of ulcers [1]	Ulcer index [1]	Histopathological findings in stomach (rat's gastric tissue)	%Inhibition of paw oedema, 1h [2]	Paw thickness change mean ± SEM, 1h [2] [mm]	%Inhibition of paw oedema, 3h [2] [%]	Paw thickness change mean ± SEM, 3h [2] [mm]	%Inhibition of paw oedema, 5h [2] [%]	Paw thickness change mean ± SEM, 5h [2] [mm]	Central analgesic activity (delay in latency time) [3]
				Cc1ccc(-c2cc(C(F)(F)F)nn2-c2ccc(S(N)(=O)=O)cc2)cc1 [Celecoxib, reference compound]	0.50	0.50	thickening and hyalinosis of basement membrane with lymphocytic infiltration and minimal congested submucosal blood capillaries	76%	0.38 ± 0.03	66	0.58 ± 0.11	19	1.08 ± 0.13	
230 to 232	0.38	42.02	16	COc1ccc(-c2cc(-c3ccc(-n4cnnn4)cc3)nc(N)c2C#N)cc1OC [Compound 4c, 6-[4-(1H-Tetrazol-1-yl)phenyl]-2-amino-4-(3,4-dimethoxyphenyl)nicotinonitrile]	1.75	1.75	mucous degeneration in gastric glandular epithelium reach to coagulative necrosis		0.83 ± 0.15	58	0.70 ± 0.11	8	1.23 ± 0.11	
281 to 283	0.18	39.38	7.09	N#Cc1c(-c2ccccc2)cc(-c2ccc(-n3cnnn3)cc2)[nH]c1=O [Compound 5a, 6-[4-(1H-Tetrazol-1-yl)phenyl]-2-oxo-4-phenyl-1,2-dihydropyridine-3-carbonitrile]	0.75	1.25	all layers of stomach were more or less normal; also recorded: most preferable compound with minimal drug effect on tissue	61%	0.61 ± 0.08	54	0.63 ± 0.18	61	0.53 ± 0.09	
> 300		46.07	6.45	COc1cc(-c2cc(-c3ccc(-n4cnnn4)cc3)[nH]c(=O)c2C#N)cc(OC)c1OC [Compound 5f, 6-[4-(1H-Tetrazol-1-yl)phenyl]-4-(3,4,5-trimethoxyphenyl)-2-oxo-1,2-dihydropyridine-3-carbonitrile]	1.25	1.25	affect only muscular layer of the stomach by causing corrugation and hyalinosis in some muscle bundles and reach to coagulative necrosis	79%	0.33 ± 0.09	36	1.08 ± 0.10	30	0.93 ± 0.15	potent analgesic activities
	0.32		8.67	COc1ccc(C2CC(c3ccc(-n4cnnn4)cc3)=NN2c2ccc(S(C)(=O)=O)cc2)cc1OC (centres unmarked) [Compound 8a, 1-{4-[5-(3,4-Dimethoxyphenyl)-1-(4-(methanesulphonyl)phenyl]-4,5-dihydro-1H-pyrazol-3-yl)phenyl}-1H-tetrazole]	1.50		some areas of glandular epithelium were more or less normal associated with sever congested blood capillaries and eosinophilic infiltrations in submucosa	71–75%		52	0.89 ± 0.19	15	1.13 ± 0.11	potent analgesic activities
241 to 243		35.18	3.87	COc1cc(C2CC(c3ccc(-n4cnnn4)cc3)=NN2c2ccc(S(C)(=O)=O)cc2)cc(OC)c1OC (centres unmarked) [Compound 8b]	0.75	0.75	massive destruction of localised area of epithelium with formation of an erosion associated with hyalinosis and necrosis of muscular layer	71%	0.45 ± 0.10	48	0.88 ± 0.09	38	0.83 ± 0.17	potent analgesic activities
	0.21		7.37	COc1cc(C2CC(c3ccc(-n4cnnn4)cc3)=NN2c2ccc(S(N)(=O)=O)cc2)cc(OC)c1OC (centres unmarked) [Compound 9b, 4-{3-[4-(1H-Tetrazol-1-yl)phenyl]-5-(3,4,5-trimethoxyphenyl)-4,5-dihydro-1H-pyrazol-1-yl)benzenesulphonamide]	0.25		Mucous degeneration of glandular epithelium of gastric mucosa, and lymphocytic infiltration and mild congestion in submucosa	75%	0.40 ± 0.11	40	1.00 ± 0.16	12	1.18 ± 0.20	

— paper PMC6445242, “Novel tetrazole and cyanamide derivatives as inhibitors of cyclooxygenase-2 enzyme: design, synthesis, anti-inflammatory evaluation, ulcerogenic liability and docking study” (Journal of Enzyme Inhibition and Medicinal Chemistry, 2017)
